Data published in patent US8609173B2, “Compositions comprising sweetness enhancers and methods of making them” (Senomyx Inc., priority 2008, dated 2013).

Experiments:
Type in all cases: in vivo, Human
[1] = tested on: External panelists; assay: Line scale (15-point sucrose equivalence) sensory test, Example 3A/3C, sucrose or LSB, pH 7.1; design: key to Average Sweetness / Average Bitterness: 15-point scale: 0 = 0% sucrose to 15 = 15% sucrose; references = 5
Method: (§1) Several types of sensory tests were used to determine the efficacy of 5-(neopentyloxy)-1H-benzo[c][1,2,6]thiadiazin-4-amino-2,2-dioxide in enhancing sweetness of sucrose. Two types of tests were conducted: • 1) Sensory scaling tests were performed using a 15-point percent sucrose equivalence scale for sweetness in order to evaluate sweetness enhancement 5-(neopentyloxy)-1H-benzo[c][1,2,6]thiadiazin-4-amino-2,2-dioxide in sucrose, or in fructose. • 2) Paired comparison tests (2-alternative forced choice difference tests) were used to determine sweetness equivalence for solutions of sucrose vs. 5-(neopentyloxy)-1H-benzo[c][1,2,6]thiadiazin-4-amino-2,2-dioxide or buffer vs. 5-(neopentyloxy)-1H-benzo[c][1,2,6]thiadiazin-4-amino-2,2-dioxide. Stimuli:
Tests were performed with sucrose or fructose. Sweetener was evaluated with and/or without 5-(neopentyloxy)-1H-benzo[c][1,2,6]thiadiazin-4-amino-2,2-dioxide at the appropriate concentration(s).
5-(Neopentyloxy)-1H-benzo[c][1,2,6]thiadiazin-4-amino-2,2-dioxide was prepared as a concentrated stock solution in ethanol to ensure dissolution of the compound. Therefore, all taste solutions contained 0.1% ethanol final concentration. Samples without compound also contained 0.1% ethanol. Low sodium phosphate buffer consists of 0.3 mM KCl, 0.5 mM Na2HPO4, and 0.175 mM KH2PO4.
In scaling test situations, the samples were rated on a 15-point scale for sweetness, ranging from 0=0% sucrose to 15=15% sucrose. To evaluate attributes other than sweetness, references are used for training and are prepared according to the table below. Note that each reference was given a score of 5 on the 15-point scale.
External panelists were used for the tests. The exact number of panelists is reported with test results. Subjects were instructed not to eat or drink anything (except water) for at least 1 hour prior to the test.
Panelists rinsed their mouths with water prior to starting any test. Samples were presented to panelists in a randomized, counterbalanced order. Panelists rinsed with water and had up to a 1 minute delay to clear the mouth of any tastes after each evaluation. Two replicates of each test were performed, unless otherwise noted.

[2] = tested on: Panelists; assay: Paired comparison taste test, flavored water
Method: Two sweetened water solutions were prepared and compared: Flavored Water with 9% Sucrose vs. Flavored Water with 6% Sucrose+2.3 ppm (6.49 μM) of 5-(neopentyloxy)-1H-benzo[c][1,2,6]thiadiazin-4-amino-2,2-dioxide.
Mixing procedures: Dissolve acid into the water using a Lightnin® blender, mix for 5 minutes. Add sugar and continue to mix until dissolved. Add flavors last. Dissolve Compound A into a 0.50% propylene glycol mixture, add last and mix for another 5 minutes. Procedure:
(§2) Panelists evaluated two sweetened water solutions in a paired comparison taste test procedure and were instructed to select the sweeter of the two samples. They perform a total of three paired comparison tests each containing the following samples: Flavored Water with 9% Sucrose vs. Flavored Water with 6% Sucrose+2.3 ppm (6.49 μM) 5-(neopentyloxy)-1H-benzo[c][1,2,6]thiadiazin-4-amino-2,2-dioxide.
Two sweetened water solutions were prepared and compared: Flavored Water with 9% Sucrose vs. Flavored Water with 6% Sucrose+2.44 ppm (6.49 μM) of 3-(4-amino-2,2-dioxide-1H-benzo[c][1,2,6]thiadiazin-5-yloxy)-2′,2′-dimethyl-N-propylpropanamide.
as §2, with “Sucrose+2.44” for “Sucrose+2.3”, “3-(4-amino-2,2-dioxide-1H-benzo[c][1,2,6]thiadiazin-5-yloxy)-2′,2′-dimethyl-N-propylpropanamide.” for “5-(neopentyloxy)-1H-benzo[c][1,2,6]thiadiazin-4-amino-2,2-dioxide.”

[3] = tested on: Panelists; assay: Paired comparison taste test, Example 7, sucrose or fructose solutions; settings: vs 6% Fructose + 25 μM compound, N = 25
Method: as §1, with “3-(4-amino-2,2-dioxide-1H-benzo[c][1,2,6]thiadiazin-5-yloxy)-2′,2′-dimethyl-N-propylpropanamide 3-(4-amino-2,2-dioxide-1H-benzo[c][1,2,6]thiadiazin-5-yloxy)-2′,2′-dimethyl-N-propylpropanamide” for “5-(neopentyloxy)-1H-benzo[c][1,2,6]thiadiazin-4-amino-2,2-dioxide”, “enhancing the” for “enhancing”, “sucrose” for “sucrose,”, “3-(4-amino-2,2-dioxide-1H-benzo[c][1,2,6]thiadiazin-5-yloxy)-2′,2′-dimethyl-N-propylpropanamide 3-(4-amino-2,2-dioxide-1H-benzo[c][1,2,6]thiadiazin-5-yloxy)-2′,2′-dimethyl-N-propylpropanamide.” for “5-(neopentyloxy)-1H-benzo[c][1,2,6]thiadiazin-4-amino-2,2-dioxide.”
Panelists evaluated two solutions in a paired comparison taste test procedure. They were instructed to select the sweeter of the two samples. They were also asked to comment on how difficult it was to tell the difference in sweetness between both samples and if any off tastes were perceived.
Panelists evaluated two solutions in a paired comparison taste test procedure and were instructed to select the sweeter of the two samples.

[4] = tested on: External panelists; assay: Line scale sensory test, Example 6, fructose as sweetener, pH 7.1; design: Average Sweetness / Average Bitterness: scale not given here
Method: Sensory evaluations were performed using fructose as the sweetener and 3-(4-amino-2,2-dioxide-1H-benzo[c][1,2,6]thiadiazin-5-yloxy)-2′,2′-dimethyl-N-propylpropanamide as the sweetness enhancer, using methods similar to those using sucrose, above. […]

[5] = 6% Sucrose + 25 μM compound, pH 7.1, n = 32

## CC(C)(C)COc1cccc2c1C(N)=NS(=O)(=O)N2 [5-(neopentyloxy)-1H-benzo[c][1,2,6]thiadiazin-4-amino-2,2-dioxide]
[1]; 35.3 μM (10 ppm) compound in LSB or 6% sucrose
  off tastes: no significant off tastes
[1]; [5]
  Average Bitterness: 0.3
  Average Sweetness: 8.7
[1]; 6% Sucrose + 35.3 μM (10 ppm) compound, n = 14
  Average Bitterness: 0.6
[1]; 6% Sucrose + 35.3 μM (10 ppm) compound, p>0.10
  Sweetness vs sucrose solutions (conclusion): not significantly different in sweetness from 8%, 9%, 10% sucrose
[1]; 6% Sucrose + 35.3 μM (10 ppm) compound, pH 7.1, n = 14
  Average Sweetness: 9.3
[1]; 6% sucrose + 25 μM compound
  Sweetness vs sucrose solutions (conclusion): not significantly different in sweetness properties compared to 9% and 10% sucrose solutions
  off tastes: No significant off tastes
[1]; LSB + 35.3 μM (10 ppm) compound, no sucrose, n = 14
  Average Bitterness: 0.3
[1]; LSB + 35.3 μM (10 ppm) compound, no sucrose, pH 7.1, n = 14
  Average Sweetness: 0.2
[1]; LSB + 35.3 μM (10 ppm) compound, p>0.10
  Sweetness vs sucrose solutions (conclusion): not significantly different in sweetness than 0% sucrose
[2]; Flavored Water with 6% Sucrose + 2.3 ppm (6.49 μM) compound chosen, vs 9% Sucrose, n = 45
  Sample selected as sweeter by panelists, Total: 23
[2]; Flavored Water with 6% Sucrose + 2.3 ppm (6.49 μM) compound vs 9% Sucrose, p>0.10
  Sweetness comparison (conclusion): not significantly different in sweetness

## O=C(CO)[C@@H](O)[C@H](O)[C@H](O)CO [Fructose, fructose]
[3]; 6% Fructose chosen
  Sample selected as sweeter by panelists, Test 1: 5
[3]; 7% Fructose chosen
  Sample selected as more sweet by panelists, Test 1: 13
[4]; 2% Fructose, Table 29, n = 30
  Average Sweetness: 2.2
[4]; 2% Fructose, Table 30, n = 30
  Average Bitterness: 0.4
[4]; 4% Fructose, Table 29, n = 30
  Average Sweetness: 4.5
[4]; 4% Fructose, Table 30, n = 30
  Average Bitterness: 0.5
[4]; 6% Fructose, Table 29, n = 30
  Average Sweetness: 5.9
[4]; 6% Fructose, Table 30, n = 30
  Average Bitterness: 0.4
[4]; 6% Fructose, Table 31, n = 14
  Average Sweetness: 7.1
[4]; 6% Fructose, Table 32, n = 14
  Average Bitterness: 0.7
[4]; 6% Fructose, Table 33, n = 26
  Average Sweetness: 6.9
[4]; 6% Fructose, Table 34, n = 26
  Average Bitterness: 0.2
[4]; 8% Fructose, Table 31, n = 14
  Average Sweetness: 8.3
[4]; 8% Fructose, Table 32, n = 14
  Average Bitterness: 0.3
[4]; 8% Fructose, Table 33, n = 26
  Average Sweetness: 8.6
[4]; 8% Fructose, Table 34, n = 26
  Average Bitterness: 0.3
[4]; 9% Fructose, Table 31, n = 14
  Average Sweetness: 9.4
[4]; 9% Fructose, Table 32, n = 14
  Average Bitterness: 0.3
[4]; 9% Fructose, Table 33, n = 26
  Average Sweetness: 9.3
[4]; 9% Fructose, Table 34, n = 26
  Average Bitterness: 0.1
[4]; 10% Fructose, Table 31, n = 14
  Average Sweetness: 11.1
[4]; 10% Fructose, Table 32, n = 14
  Average Bitterness: 0.2
[4]; 10% Fructose, Table 33, n = 26
  Average Sweetness: 9.5
[4]; 10% Fructose, Table 34, n = 26
  Average Bitterness: 0.1
